# Experimental data: patent US20180244611A1, “Modulators of the Cystic Fibrosis Transmembrane Conductance Regulator Protein and Methods of Use” (AbbVie S.à.r.l., priority 2017, published 2018)
# Legend:
# [1] = target: T1, F508delCFTR (Homo sapiens, UniProt P13569, DEL508-508); assay: Cell Surface Expression-Horse Radish Peroxidase (CSE-HRP) assay, test compound without co-corrector; assay type: cell-based; conditions: for Emax: maximum at any tested concentration, without co-corrector; for EC50: test compound without co-corrector;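 on Emax: percent of on-plate 2 µM positive control corrector response over DMSO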
# T1 construct: expressed in transfected cells; host or cells: CFBE41o- human lung-derived epithelial cells (CFBE41o-F508delCFTR-HRP), doxycycline-inducible
# Summary of the method: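 CFBE41o- cells expressing F508delCFTR with HRP in the fourth exofacial loop, induced with 0.5 μg/mL doxycycline for 72 h at 37° C, then exposed to compound alone for 18-24 h at 33° C, 8-point 3-fold series from 20 μM. Surface HRP read by luminol luminescence, normalized to positive corrector control versus DMSO; EC50 from variable-slope sigmoidal fit of three replicate plates.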
# [2] = target: T1, F508delCFTR; assay: Cell Surface Expression-Horse Radish Peroxidase (CSE-HRP) assay, test compound with co-corrector; assay type: cell-based; conditions: for Maximum % activity (with co-corrector): maximum at any tested concentration;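 on Maximum % activity (with co-corrector): percent of 2 µM positive control corrector over DMSO; co-corrector is that same compound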
# Summary of the method: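 CFBE41o- cells expressing F508delCFTR with HRP in the fourth exofacial loop, induced with 0.5 μg/mL doxycycline for 72 h, then treated 18-24 h at 33° C. with compound (8 points, top 20 μM, 3-fold) plus 2 μM co-corrector. Surface HRP read by luminol luminescence; activity normalised to positive control, EC50 from variable-slope sigmoidal fit.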
# [3] = normalized to positive control, with 2 μM co-corrector
# [4] = normalized to on-plate positive control
# [5] = CSE-HRP assay, test compound with 2 μM co-corrector
# [6] = normalized to on-plate positive control, with 2 μM co-corrector
# T1 sequence (P13569 with tags, fused parts or gaps DEL508-508): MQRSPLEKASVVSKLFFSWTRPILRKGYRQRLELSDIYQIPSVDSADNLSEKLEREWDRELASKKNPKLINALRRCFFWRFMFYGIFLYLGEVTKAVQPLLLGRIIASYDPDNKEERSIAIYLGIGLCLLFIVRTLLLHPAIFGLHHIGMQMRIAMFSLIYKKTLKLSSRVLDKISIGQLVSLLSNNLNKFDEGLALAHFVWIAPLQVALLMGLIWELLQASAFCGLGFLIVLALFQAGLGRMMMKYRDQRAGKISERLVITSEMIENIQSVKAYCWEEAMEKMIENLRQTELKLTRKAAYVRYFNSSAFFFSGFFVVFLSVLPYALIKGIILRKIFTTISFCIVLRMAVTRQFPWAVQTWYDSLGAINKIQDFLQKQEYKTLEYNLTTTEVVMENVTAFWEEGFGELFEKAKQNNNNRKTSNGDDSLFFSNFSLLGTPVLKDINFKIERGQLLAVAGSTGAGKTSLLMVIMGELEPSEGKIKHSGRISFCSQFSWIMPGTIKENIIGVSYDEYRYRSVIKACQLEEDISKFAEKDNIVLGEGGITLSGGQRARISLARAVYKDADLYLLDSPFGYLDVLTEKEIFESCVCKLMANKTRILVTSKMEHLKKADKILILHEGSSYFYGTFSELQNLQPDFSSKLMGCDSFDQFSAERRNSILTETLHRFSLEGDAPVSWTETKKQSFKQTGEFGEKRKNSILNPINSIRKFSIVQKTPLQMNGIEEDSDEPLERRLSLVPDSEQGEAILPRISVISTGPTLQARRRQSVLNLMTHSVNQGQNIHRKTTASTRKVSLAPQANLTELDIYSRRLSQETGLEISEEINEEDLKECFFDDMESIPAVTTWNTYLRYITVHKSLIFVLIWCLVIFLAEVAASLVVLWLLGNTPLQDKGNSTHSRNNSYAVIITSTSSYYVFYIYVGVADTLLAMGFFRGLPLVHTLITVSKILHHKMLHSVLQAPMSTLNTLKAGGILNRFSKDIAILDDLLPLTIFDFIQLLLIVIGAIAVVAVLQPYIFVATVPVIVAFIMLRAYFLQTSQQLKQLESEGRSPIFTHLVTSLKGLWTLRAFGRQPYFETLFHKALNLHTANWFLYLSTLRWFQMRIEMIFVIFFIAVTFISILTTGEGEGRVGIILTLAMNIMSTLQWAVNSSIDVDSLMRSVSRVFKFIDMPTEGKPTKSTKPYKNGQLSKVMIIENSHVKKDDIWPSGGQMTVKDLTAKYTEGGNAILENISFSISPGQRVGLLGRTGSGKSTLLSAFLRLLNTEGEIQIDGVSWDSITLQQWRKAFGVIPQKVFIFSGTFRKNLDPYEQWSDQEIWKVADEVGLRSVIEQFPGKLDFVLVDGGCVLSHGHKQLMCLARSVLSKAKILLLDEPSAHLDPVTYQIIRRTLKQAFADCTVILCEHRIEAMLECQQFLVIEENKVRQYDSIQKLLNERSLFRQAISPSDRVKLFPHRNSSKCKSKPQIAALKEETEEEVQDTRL
Structure (SMILES),Emax ([1]; normalized to positive control),EC50 [1],"Maximum % activity (with co-corrector) [2, 3]",EC50 ([2]; with 2 μM co-corrector),EC50 ([1]; CSE-HRP assay),"Emax [1, 4]","EC50 [2, 5]","Maximum % activity (with co-corrector) [2, 6]"
CC1(C(=O)NS(=O)(=O)c2cccc3ccccc23)CCc2ccc(OC(F)(F)F)cc21 (stereo not drawn) [II-49],≥ 150%,3 to 10 µM,+++ (≥350),< 3 µM,–,–,–,–
"COc1ccc(C2CCC2)c2c1[C@@H](C(=O)NS(=O)(=O)c1cccc3cnn(C)c13)C2 (single isomer, unassigned) [Example I-143]",50 to 150%,3 to 10 µM,+++ (≥350),< 3 µM,–,–,–,–
"COc1ccc(C(F)(F)F)c2c1[C@H](C(=O)NS(=O)(=O)c1cccc3ncccc13)CC2 [Example I-96, (1R)-7-methoxy-N-(quinoline-5-sulfonyl)-4-(trifluoromethyl)-2,3-dihydro-1H-indene-1-carboxamide]",≥ 150%,< 3 µM,+++ (≥350),< 3 µM,–,–,–,–
COc1ccc(/C=C/c2ccccc2)c2c1C(C(=O)NS(=O)(=O)c1cccc3ccccc13)CCC2 (stereo not drawn) [II-120],< 50%,3 to 10 µM,++ (≥150 and <350),3 to 10 µM,–,–,–,–
"COc1ccc(C2CCC2)c2c1[C@H](C(=O)NS(=O)(=O)c1cccc3cnn(C)c13)C2 [Example I-144, (7R)-2-cyclobutyl-5-methoxy-N-(1-methyl-1H-indazole-7-sulfonyl)bicyclo[4.2.0]octa-1,3,5-triene-7-carboxamide]",≥ 150%,< 3 µM,+++ (≥350),< 3 µM,–,–,–,–
Cc1ccccc1S(=O)(=O)NC(=O)[C@@]1(C)CCc2ccc(Cl)cc21 [II-4],< 50%,3 to 10 µM,++ (≥150 and <350),3 to 10 µM,–,–,–,–
"COc1ccc(C2CCC2)c2c1[C@H](C(=O)NS(=O)(=O)c1cccc3c1CCCN3)C2 [Example I-146, (7R)-2-cyclobutyl-5-methoxy-N-(1,2,3,4-tetrahydroquinoline-5-sulfonyl)bicyclo[4.2.0]octa-1,3,5-triene-7-carboxamide]",≥ 150%,< 3 µM,+++ (≥350),< 3 µM,–,–,–,–
O=C(NS(=O)(=O)c1cccc2ccccc12)C1(CC2CCOC2)CCc2c(Cl)cccc21 (stereo not drawn) [II-69],50 to 150%,< 3 µM,+++ (≥350),< 3 µM,–,–,–,–
"COc1ccc(-c2ccc(C)cc2)c2c1CCCC2C(=O)NS(=O)(=O)c1cccc2ccccc12 (stereo not drawn) [Example I-57, 5-methoxy-8-(4-methylphenyl)-N-(naphthalene-1-sulfonyl)-1,2,3,4-tetrahydronaphthalene-1-carboxamide]",≥ 150%,< 3 µM,+++ (≥350),< 3 µM,–,–,–,–
"COc1ccc(C2CCC2)c2c1[C@@H](C(=O)NS(=O)(=O)c1cccc3nc(C)ccc13)CC2 [Example I-127, (1S)-4-cyclobutyl-7-methoxy-N-(2-methylquinoline-5-sulfonyl)-2,3-dihydro-1H-indene-1-carboxamide]",≥ 150%,3 to 10 µM,+++ (≥350),< 3 µM,–,–,–,–
COc1cccc2c1CC[C@]2(C)C(=O)NS(=O)(=O)c1cccc2ccccc12 [II-46],50 to 150%,3 to 10 µM,+++ (≥350),3 to 10 µM,–,–,–,–
"CC[C@@]1(C(=O)NS(=O)(=O)c2cccc3ccccc23)CCCc2cccc(Cl)c21 [Example I-65, (1R)-8-chloro-1-ethyl-N-(naphthalene-1-sulfonyl)-1,2,3,4-tetrahydronaphthalene-1-carboxamide]",≥ 150%,< 3 µM,+++ (≥350),< 3 µM,–,–,–,–
"COc1ccc(Br)c2c1CCC[C@H]2C(=O)NS(=O)(=O)c1cccc2ccccc12 [Example I-49, (1R)-8-bromo-5-methoxy-N-(naphthalene-1-sulfonyl)-1,2,3,4-tetrahydronaphthalene-1-carboxamide]",≥ 150%,< 3 µM,+++ (≥350),< 3 µM,–,–,–,–
COc1cccc2c1CCC2C(=O)NS(=O)(=O)c1ccccc1F (stereo not drawn) [II-38],< 50%,≥ 10 µM,++ (≥150 and <350),3 to 10 µM,–,–,–,–
Cc1ccccc1S(=O)(=O)NC(=O)[C@]1(C)CCc2ccc(Cl)cc21 [II-5],< 50%,3 to 10 µM,++ (≥150 and <350),< 3 µM,–,–,–,–
"COc1ccc(CC(C)C)c2c1C(C(=O)NS(=O)(=O)c1cccc3ncccc13)CC2 (stereo not drawn) [Example I-140, 7-methoxy-4-(2-methylpropyl)-N-(quinoline-5-sulfonyl)-2,3-dihydro-1H-indene-1-carboxamide]",≥ 150%,< 3 µM,+++ (≥350),< 3 µM,–,–,–,–
"COCCOc1ccc(Br)c2c1CCCC2C(=O)NS(=O)(=O)c1cccc2ccccc12 (stereo not drawn) [Example I-45, 8-bromo-5-(2-methoxyethoxy)-N-(naphthalene-1-sulfonyl)-1,2,3,4-tetrahydronaphthalene-1-carboxamide]",≥ 150%,< 3 µM,+++ (≥350),< 3 µM,–,–,–,–
"CCC1(C(=O)NS(=O)(=O)c2cccc3ccccc23)CCc2c(Br)ccc(OC)c21 (stereo not drawn) [Example I-28, 4-bromo-1-ethyl-7-methoxy-N-(naphthalene-1-sulfonyl)-2,3-dihydro-1H-indene-1-carboxamide]",≥ 150%,< 3 µM,+++ (≥350),< 3 µM,–,–,–,–
"CC[C@]1(C(=O)NS(=O)(=O)c2cccc3ccccc23)CCc2c(Cl)cccc21 [Example I-17, (1S)-4-chloro-1-ethyl-N-(naphthalene-1-sulfonyl)-2,3-dihydro-1H-indene-1-carboxamide]",50 to 150%,< 3 µM,+++ (≥350),< 3 µM,–,–,–,–

# Results, then the compound that gave them:
Emax ([1]; normalized to positive control),EC50 [1],"Maximum % activity (with co-corrector) [2, 3]",EC50 ([2]; with 2 μM co-corrector),EC50 ([1]; CSE-HRP assay),"Emax [1, 4]","EC50 [2, 5]","Maximum % activity (with co-corrector) [2, 6]",Structure (SMILES)
50 to 150%,3 to 10 µM,+++ (≥350),3 to 10 µM,–,–,–,–,COc1cccc2c1CCC2C(=O)NS(=O)(=O)c1ccccc1C(=O)OC(C)C (stereo not drawn) [III-56]
–,–,–,–,3 to 10 µM,50 to 150%,3 to 10 µM,+++ (≥350),Cc1ccccc1S(=O)(=O)NC(=O)C1CCc2c(-c3ccsc3)cccc21 (stereo not drawn) [III-99]
–,–,–,–,≥ 10 µM,< 50%,≥ 10 µM,+ (<150),Cc1ccccc1S(=O)(=O)NC(=O)C1CCc2c(-c3c(C)nn(C)c3C)cccc21 (stereo not drawn) [III-105]
–,–,–,–,≥ 10 µM,< 50%,≥ 10 µM,+ (<150),COc1ccc2c(c1OC)CC2C(=O)NS(=O)(=O)c1ccccc1C (stereo not drawn) [III-175]
< 50%,≥ 10 µM,+ (<150),≥ 10 µM,–,–,–,–,COc1cccc2c1CCC2C(=O)NS(=O)(=O)c1sc(C)nc1C (stereo not drawn) [III-80]
< 50%,≥ 10 µM,+ (<150),≥ 10 µM,–,–,–,–,COc1cccc2c1CCC2C(=O)NS(=O)(=O)c1ccc(O)nc1 (stereo not drawn) [III-66]
–,–,–,–,≥ 10 µM,< 50%,≥ 10 µM,+ (<150),Cc1cncc(-c2cccc3c2CCC3C(=O)NS(=O)(=O)c2ccccc2C)c1 (stereo not drawn) [III-92]
–,–,–,–,≥ 10 µM,< 50%,3 to 10 µM,+ (<150),CCC1(C(=O)NS(=O)(=O)c2ccc(OC(F)(F)F)cc2)CCc2c(Cl)cccc21 (stereo not drawn) [III-119]
